For test [1] the following is noted: Pope et al. Cellular Immunology 162: 333-339 (1995); cited from earlier work.
Test [2] concerns BALB/c mice. As to the kind of experiment: In vivo adjuvant study: Env-specific serum IgG1 ELISA. Conditions: vaccinated day 0 and 28, sera 6-7 d after 2nd vaccination. From the text: (§1) In phosphate-buffered saline (PBS), 25 micrograms gp120dV2EnvSF162 antigen (recombinant gp120 protein derived from sequence of HIV-1 strain SF162—the V2 domain was deleted; Pharm Res. 2004 Dec. 21(12):2148-52) as mixed with 50 microliters of MF59 adjuvant, followed the by the addition of 0, 1, 5, or 25 micrograms of a small molecule immune potentiator (SMIP) and adjusted to 100 microliters with PBS. 50 microliters of the solution was subsequently injected into both the left and right tibialis anterior muscles of female BALB/c mice (Day 0), for a total volume of 100 microliters per mouse. Four weeks later (Day 28), 50 microliters of the solution was again injected into both the left and right tibialis anterior muscles of the mouse. Seven days after the second vaccination ([…]), serum samples were collected, and a day later (day 35) spleens were removed. Serum samples were assayed by Env-specific serum IgG2a ELISA and Env-specific serum IgG1 ELISA. Spleen samples were assayed by Env-specific, cytokine-producing splenic CD4 and CD8 T cells.
(§2) BALB/c mise were immunized 2× with HIV gp120 formulated in MF59 +/− the indicated SMIPs (25 μg/ml). CpG 1826 (25 μg/ml) was used as a positive control. […] post-second serum was collected from the immunized mice and the anti-gp120-specific serum IgG2a (FIG. 4A) and IgG1 (FIG. 4B) geometric mean titers (GMT) were determined. In addition, spleens were also harvested from the immunized mice and ex vivo anti-gp120-specific T cell responses (FIG. 4C) were determined by intracellular cytokine staining for IL-2 and IFN-g. Results are percentage of antigen-specific T cells expressing the indicated cytokine.

Test [3] has as its system BALB/c mice. Description: In vivo adjuvant study: Env-specific cytokine-producing splenic CD4 and CD8 T cells. As to conditions: spleens 6-7 d after 2nd vaccination.
From the text: as §1, §2

Test [4] has as its system BALB/c mice. As to the kind of experiment: In vivo adjuvant study: Env-specific serum IgG2a ELISA. Conditions: vaccinated day 0 and 28, sera 6-7 d after 2nd vaccination.
From the text: as §1, §2
A general note: ELISA stands for enzyme-linked immunosorbent assay.

Where [5] appears, read: 25 μg added to gp120dV2/MF59 base vaccine.
Where [6] appears, read: 1 μg added to gp120dV2/MF59 base vaccine.
Setting [7] is: 5 μg added to gp120dV2/MF59 base vaccine.

Take `C=CCn1c(=O)n([C@@H]2O[C@H](CO)[C@@H](O)[C@H]2O)c2nc(N)[nH]c(=O)c21` [Loxoribine]: the “concentration causing useful production of TNF-α” value in test [1] is 300 µM.

For ODN-1826 [reference compound], the “Env-spec IgG1 titer, Geo mean” value in the test on BALB/c mice [2] (setting [5]) stood at 30188. Also, in the test with BALB/c mice [3] (setting [5]), the “Env-spec CD4 (%) IFN-γ+” value is 0.32%, the “Env-spec CD4 (%) IL-2+” value was determined as 0.47%, the “Env-spec CD8 (%) IFN-γ+” value came to 0.15% and the “Env-spec CD8 (%) IL2+” value was 0.12%. For the same molecule, the “Env-spec IgG2a titer, Geo mean” value in the test with BALB/c mice [4] (setting [5]) was found to be 201306.

As to `CCCSc1nc2c(N)nc3ccccc3c2n1CC(C)C` [Example 11, 1-(2-methylpropyl)-2-(propylthio)-1H-imidazo[4,5-c]quinolin-4-amine], the figures for the “Env-spec IgG1 titer, Geo mean” value with BALB/c mice [2] (setting [6]), in the test on BALB/c mice [2] (setting [7]) and with BALB/c mice [2] (setting [5]) were 35177, 33477 and 34199, respectively. In addition, the “Env-spec CD4 (%) IFN-γ+” value in the test with BALB/c mice [3] (setting [6]), in the test with BALB/c mice [3] (setting [7]) and in the test on BALB/c mice [3] (setting [5]) was 0.04% each time. Moreover, the “Env-spec CD4 (%) IL-2+” value in the test on BALB/c mice [3] (setting [6]) is recorded as 0.17%; with BALB/c mice [3] (setting [7]), 0.42%; with BALB/c mice [3] (setting [5]), 0.42%. For the same molecule, the figures for the “Env-spec CD8 (%) IFN-γ+” value in the test with BALB/c mice [3] (setting [6]), in the test on BALB/c mice [3] (setting [7]) and with BALB/c mice [3] (setting [5]) were 0.08%, 0.19% and 0.18%, respectively. In addition, the entries for the “Env-spec CD8 (%) IL2+” value in the test on BALB/c mice [3] (setting [6]), with BALB/c mice [3] (setting [7]) and with BALB/c mice [3] (setting [5]) were 0.17%, 0.22% and 0.22%, respectively. Also, the “Env-spec IgG2a titer, Geo mean” value in the test with BALB/c mice [4] (setting [6]) was 512; with BALB/c mice [4] (setting [7]), 2922; with BALB/c mice [4] (setting [5]), 6507.

As to `CCCN(C)c1nc2c(N)nc3ccccc3c2n1CC(C)(C)O` [Example 19, 1-{4-amino-2-[methyl(propyl)amino]-1H-imidazo[4,5-c]quinolin-1-yl}-2-methylpropan-2-ol], the “Env-spec IgG1 titer, Geo mean” value in the test with BALB/c mice [2] (setting [6]) turned out to be 30536; with BALB/c mice [2] (setting [7]), 29502; in the test on BALB/c mice [2] (setting [5]), 38255. In addition, the “Env-spec CD4 (%) IFN-γ+” value turned out to be 0.07% with BALB/c mice [3] (setting [6]), 0.04% in the test with BALB/c mice [3] (setting [7]) and 0.29% in the test on BALB/c mice [3] (setting [5]). In addition, the “Env-spec CD4 (%) IL-2+” value in the test with BALB/c mice [3] (setting [6]) turned out to be 0.14%; in the test with BALB/c mice [3] (setting [7]), 0.40%; with BALB/c mice [3] (setting [5]) it was 0.76%. The “Env-spec CD8 (%) IFN-γ+” value with BALB/c mice [3] (setting [6]) worked out at 0.21%; in the test with BALB/c mice [3] (setting [7]), 0.35%; in the test with BALB/c mice [3] (setting [5]) it was 0.07%. Further, the entries for the “Env-spec CD8 (%) IL2+” value in the test with BALB/c mice [3] (setting [6]), in the test on BALB/c mice [3] (setting [7]) and with BALB/c mice [3] (setting [5]) were 0.14%, 0.37% and 0.10%, respectively. Further, the “Env-spec IgG2a titer, Geo mean” value in the test with BALB/c mice [4] (setting [6]) is on record as 1215; in the test on BALB/c mice [4] (setting [7]), 10104; in the test with BALB/c mice [4] (setting [5]), 18733.

The values are drawn from patent US20130096103A1, “IMIDAZOQUINOLINE COMPOUNDS” (NOVARTIS VACCINES & DIAGNOSTICS, INC., priority 2004, published 2013).
